Patent publication US20240246964A1 (Arbutus Biopharma Corporation, priority 2021, published 2024)

What was measured:
human PD-L1 = human PD-L1 (Homo sapiens (Human), UniProt Q9NZQ7); assay: T cell activation luciferase reporter cell culture system (T Cell Activation Assay); type: cell-based; conditions: luciferase reporter assay; PD-L1 aAPC/CHO-K1 cells with PD-1 effector Jurkat T cells
[1] = target: PD-L1 His protein / PD-1 Fc protein (Homo sapiens (Human), UniProt Q9NZQ7); assay: HTRF Assay (PD-1/PD-L1 interaction); type: binding; conditions: PD-L1 His 6 nM, PD-1 Fc 6 nM
Chain of PD-L1 His protein / PD-1 Fc protein (Q9NZQ7 19-238): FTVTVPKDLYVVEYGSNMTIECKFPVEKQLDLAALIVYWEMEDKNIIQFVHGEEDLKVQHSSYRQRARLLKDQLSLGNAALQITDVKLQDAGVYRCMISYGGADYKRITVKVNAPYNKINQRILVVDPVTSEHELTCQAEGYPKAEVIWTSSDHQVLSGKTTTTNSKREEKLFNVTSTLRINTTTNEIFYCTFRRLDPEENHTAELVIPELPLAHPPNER

Chain of human PD-L1 (Q9NZQ7 19-290): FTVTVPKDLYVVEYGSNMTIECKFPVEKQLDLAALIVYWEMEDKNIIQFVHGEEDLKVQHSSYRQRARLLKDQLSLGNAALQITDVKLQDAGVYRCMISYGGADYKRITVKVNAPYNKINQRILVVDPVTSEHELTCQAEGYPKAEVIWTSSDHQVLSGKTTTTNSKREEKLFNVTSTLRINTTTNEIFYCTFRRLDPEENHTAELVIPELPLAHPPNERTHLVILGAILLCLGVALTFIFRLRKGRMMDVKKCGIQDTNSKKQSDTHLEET

| SMILES | EC50 (human PD-L1) [nM] | IC50 [1] [nM] |
| --- | --- | --- |
| COc1cc(-c2nccc(-c3cccc(-c4ccc(CNC5CCN(C(C)=O)CC5)c(OC)n4)c3Cl)c2Cl)cnc1CNC1CCN(C(C)=O)CC1 [Compound 375, 1-(4-(((6-(3-(6′-(((1-Acetylpiperidin-4-yl)amino)methyl)-3-chloro-5′-methoxy-[2,3′-bipyridin]-4-yl)-2-chlorophenyl)-2-methoxypyridin-3-yl)methyl)amino)piperidin-1-yl)ethan-1-one] | 46.4 | 1.24 |
| COc1cc(-c2nccc(-c3cccc(-c4ccc(CN5CC6(CNC(=O)C6)C5)c(OC)n4)c3Cl)c2Cl)cnc1CN1CC2(CNC(=O)C2)C1 [Compound 376, 2-((3-Chloro-4-(2-chloro-3-(6-methoxy-5-((7-oxo-2,6-diazaspiro[3.4]octan-2-yl)methyl)pyridin-2-yl)phenyl)-5′-methoxy-[2,3′-bipyridin]-6′-yl)methyl)-2,6-diazaspiro[3.4]octan-7-one] | 38.4 | 0.458 |
| COc1cc(-c2nccc(-c3cccc(-c4ccc(CN5CC6(C5)CN(C(C)=O)C6)c(OC)n4)c3Cl)c2Cl)cnc1CN1CC2(C1)CN(C(C)=O)C2 [Compound 428, 1-(6-((6-(3-(6′-((6-Acetyl-2,6-diazaspiro[3.3]heptan-2-yl)methyl)-3-chloro-5′-methoxy-[2,3′-bipyridin]-4-yl)-2-chlorophenyl)-2-methoxypyridin-3-yl)methyl)-2,6-diazaspiro[3.3]heptan-2-yl)ethan-1-one] | 51.2 | 0.77 |
| COc1cc(-c2nccc(-c3cccc(-c4ccc(CNC5CC6(COC6)C5)c(OC)n4)c3Cl)c2Cl)cnc1CNC1CC2(COC2)C1 (stereo not drawn) [Compound 429, N-((4-(3-(5-(((2-Oxaspiro[3.3]heptan-6-yl)amino)methyl)-6-methoxypyridin-2-yl)-2-chlorophenyl)-3-chloro-5′-methoxy-[2,3′-bipyridin]-6′-yl)methyl)-2-oxaspiro[3.3]heptan-6-amine] | 71.4 | 4.1 |
| COc1cc(-c2nccc(-c3cccc(-c4ccc(CN5CC6(CCC(=O)N6)C5)c(OC)n4)c3Cl)c2Cl)cnc1CN1CC2(CCC(=O)N2)C1 [Compound 430, 2-((3-Chloro-4-(2-chloro-3-(6-methoxy-5-((6-oxo-2,5-diazaspiro[3.4]octan-2-yl)methyl)pyridin-2-yl)phenyl)-5′-methoxy-[2,3′-bipyridin]-6′-yl)methyl)-2,5-diazaspiro[3.4]octan-6-one] | 23.3 | 0.35 |
| COc1cc(-c2nccc(-c3cccc(-c4ccc(CNC5CCOCC5)c(OC)n4)c3Cl)c2Cl)cnc1CNC1CCOCC1 [Compound 431, N-((6-(2-Chloro-3-(3-chloro-5′-methoxy-6′-(((tetrahydro-2H-pyran-4-yl)amino)methyl)-[2,3′-bipyridin]-4-yl)phenyl)-2-methoxypyridin-3-yl)methyl)tetrahydro-2H-pyran-4-amine] | 106 | 2.03 |
| COc1cc(-c2cccc(-c3ccnc(-c4cnc(CNC5CCN(C(C)=O)CC5)c(OC)c4)c3Cl)c2Cl)ccc1CNC1CCN(C(C)=O)CC1 [Compound 500, 1-(4-(((4-(4′-(((1-acetylpiperidin-4-yl)amino)methyl)-2-chloro-3′-methoxy-[1,1′-biphenyl]-3-yl)-3-chloro-5′-methoxy-[2,3′-bipyridin]-6′-yl)methyl)amino)piperidin-1-yl)ethan-1-one] | 120 | 1.95 |
| COc1cc(-c2cccc(-c3ccnc(-c4cnc(CN5CC6(CNC(=O)C6)C5)c(OC)c4)c3Cl)c2Cl)ccc1CN1CC2(CNC(=O)C2)C1 [Compound 501, 2-((3-Chloro-4-(2-chloro-3′-methoxy-4′-((7-oxo-2,6-diazaspiro[3.4]octan-2-yl)methyl)-[1,1′-biphenyl]-3-yl)-5′-methoxy-[2,3′-bipyridin]-6′-yl)methyl)-2,6-diazaspiro[3.4]octan-7-one] | 94.1 | 0.92 |
| COc1cc(-c2nccc(-c3cccc(-c4ccc(CN5CC6(CNC(=O)C6)C5)c(OC)n4)c3Cl)c2Cl)cnc1CNC1CCN(C(C)=O)CC1 [Compound 547, 2-((6-(3-(6′-(((1-acetylpiperidin-4-yl)amino)methyl)-3-chloro-5′-methoxy-[2,3′-bipyridin]-4-yl)-2-chlorophenyl)-2-methoxypyridin-3-yl)methyl)-2,6-diazaspiro[3.4]octan-7-one] | 69.2 | 0.35 |
| COc1cc(-c2nccc(-c3cccc(-c4ccc(CN5CC6(CNC(=O)C6)C5)c(OC)n4)c3Cl)c2Cl)cnc1CNC1CCOCC1 [Compound 548, 2-((6-(2-Chloro-3-(3-chloro-5′-methoxy-6′-(((tetrahydro-2H-pyran-4-yl)amino)methyl)-[2,3′-bipyridin]-4-yl)phenyl)-2-methoxypyridin-3-yl)methyl)-2,6-diazaspiro[3.4]octan-7-one] | 75.9 | 1.13 |
| COc1cc(-c2nccc(-c3cccc(-c4ccc(CN5CC6(CNC(=O)C6)C5)c(OC)n4)c3Cl)c2Cl)cnc1CNC[C@@H]1CCC(=O)N1 [Compound 550, (S)-2-((6-(2-Chloro-3-(3-chloro-5′-methoxy-6′-((((5-oxopyrrolidin-2-yl)methyl)amino)methyl)-[2,3′-bipyridin]-4-yl)phenyl)-2-methoxypyridin-3-yl)methyl)-2,6-diazaspiro[3.4]octan-7-one] | 25 | 0.28 |
| COc1cc(-c2nccc(-c3cccc(-c4ccc5c(CNC6CCN(C(C)=O)CC6)cn(C)c5n4)c3Cl)c2Cl)ccc1CNCCO [Compound 560, 1-(4-(((6-(2-Chloro-3-(3-chloro-2-(4-(((2-hydroxyethyl)amino)methyl)-3-methoxyphenyl)pyridin-4-yl)phenyl)-1-methyl-1H-pyrrolo[2,3-b]pyridin-3-yl)methyl)amino)piperidin-1-yl)ethan-1-one] | 57.3 | 1.66 |
| COc1cc(-c2nccc(-c3cccc(-c4ccc5c(CNC6CCOCC6)cn(C)c5n4)c3Cl)c2Cl)ccc1CNC1CCOCC1 [Compound 563, N-((6-(2-Chloro-3-(3-chloro-2-(3-methoxy-4-(((tetrahydro-2H-pyran-4-yl)amino)methyl)phenyl)pyridin-4-yl)phenyl)-1-methyl-1H-pyrrolo[2,3-b]pyridin-3-yl)methyl)tetrahydro-2H-pyran-4-amine] | 956 | 4.07 |
| COc1cc(-c2nccc(-c3cccc(-c4ccc5c(CNC6CCN(C(C)=O)CC6)cn(C)c5n4)c3Cl)c2Cl)ccc1CN1CC2(C1)CN(C(C)=O)C2 [Compound 564, 1-(4-(((6-(3-(2-(4-((6-Acetyl-2,6-diazaspiro[3.3]heptan-2-yl)methyl)-3-methoxyphenyl)-3-chloropyridin-4-yl)-2-chlorophenyl)-1-methyl-1H-pyrrolo[2,3-b]pyridin-3-yl)methyl)amino)piperidin-1-yl)ethan-1-one] | 260 | 1.46 |
| COc1cc(-c2cccc(-c3ccnc(-c4cnc(CNC5CCN(C(C)=O)CC5)c(OC)c4)c3Cl)c2Cl)cnc1CNC1CCN(C(C)=O)CC1 [Compound 567, 1-(4-(((5-(3-(6′-(((1-acetylpiperidin-4-yl)amino)methyl)-3-chloro-5′-methoxy-[2,3′-bipyridin]-4-yl)-2-chlorophenyl)-3-methoxypyridin-2-yl)methyl)amino)piperidin-1-yl)ethan-1-one] | ≥ 10000 | 17.7 |
| COc1cc(-c2cccc(-c3ccnc(-c4cnc(CN5CC6(CNC(=O)C6)C5)c(OC)c4)c3Cl)c2Cl)cnc1CN1CC2(CNC(=O)C2)C1 [Compound 569, 2-((3-Chloro-4-(2-chloro-3-(5-methoxy-6-((7-oxo-2,6-diazaspiro[3.4]octan-2-yl)methyl)pyridin-3-yl)phenyl)-5′-methoxy-[2,3′-bipyridin]-6′-yl)methyl)-2,6-diazaspiro[3.4]octan-7-one] | 580 | 0.62 |
| COc1cc(-c2cccc(-c3ccnc(-c4cnc(CNC5CCOCC5)c(OC)c4)c3Cl)c2Cl)cnc1CNC1CCOCC1 [Compound 570, N-((5-(2-Chloro-3-(3-chloro-5′-methoxy-6′-(((tetrahydro-2H-pyran-4-yl)amino)methyl)-[2,3′-bipyridin]-4-yl)phenyl)-3-methoxypyridin-2-yl)methyl)tetrahydro-2H-pyran-4-amine] | ≥ 10000 | 18.5 |
| COc1nc(-c2cccc(-c3nccc(-c4ccc(CNC5CCN(C(C)=O)CC5)c(OC)n4)c3Cl)c2Cl)ccc1CNC1CCN(C(C)=O)CC1 [Compound 572, 1-(4-(((6-(3-(5-(((1-Acetylpiperidin-4-yl)amino)methyl)-3′-chloro-6-methoxy-[2,4′-bipyridin]-2′-yl)-2-chlorophenyl)-2-methoxypyridin-3-yl)methyl)amino)piperidin-1-yl)ethan-1-one] | 17.4 | 0.19 |
| COc1nc(-c2cccc(-c3nccc(-c4ccc(CN5CC6(CNC(=O)C6)C5)c(OC)n4)c3Cl)c2Cl)ccc1CN1CC2(CNC(=O)C2)C1 [Compound 573, 2-((3′-Chloro-2′-(2-chloro-3-(6-methoxy-5-((7-oxo-2,6-diazaspiro[3.4]octan-2-yl)methyl)pyridin-2-yl)phenyl)-6-methoxy-[2,4′-bipyridin]-5-yl)methyl)-2,6-diazaspiro[3.4]octan-7-one] | 14.4 | 0.17 |
| COc1nc(-c2cccc(-c3nccc(-c4ccc(CNC5CCOCC5)c(OC)n4)c3Cl)c2Cl)ccc1CNC1CCOCC1 [Compound 574, N-((3′-Chloro-2′-(2-chloro-3-(6-methoxy-5-(((tetrahydro-2H-pyran-4-yl)amino)methyl)pyridin-2-yl)phenyl)-6-methoxy-[2,4′-bipyridin]-5-yl)methyl)tetrahydro-2H-pyran-4-amine] | 14 | 0.04 |
| COc1nc(-c2cccc(-c3nccc(-c4ccc(CNC[C@@H]5CCC(=O)N5)c(OC)n4)c3Cl)c2Cl)ccc1CNC[C@@H]1CCC(=O)N1 [Compound 575, (S)-5-((((3′-Chloro-2′-(2-chloro-3-(6-methoxy-5-(((((S)-5-oxopyrrolidin-2-yl)methyl)amino)methyl)pyridin-2-yl)phenyl)-6-methoxy-[2,4′-bipyridin]-5-yl)methyl)amino)methyl)pyrrolidin-2-one] | 14.1 | 0.11 |
